Data on one compound can be found in ChEMBL document CHEMBL4138278, “Neothioviridamide, a Polythioamide Compound Produced by Heterologous Expression of a Streptomyces sp. Cryptic RiPP Biosynthetic Gene Cluster” (J Nat Prod, 2018).

Holding throughout (format): functional, cell-based
One experiment deals with Jurkat. The experiment is described as follows: Cytotoxicity against human Jurkat cells assessed as reduction in cell viability after 72 hrs by CellTiter-Glo luminescence assay. Background: Cellular ATP, detected with luciferase, serves as a proxy for viable cell number.
For the next experiment, the system named is SK-OV-3. The experiment is described as follows: Cytotoxicity against human SKOV3 cells assessed as reduction in cell viability after 72 hrs by CellTiter-Glo luminescence assay. Particulars: SK-OV-3, 72 h.
Experiment [1] can be described thus: Cytotoxicity against human ACC-MESO1 cells assessed as reduction in cell viability after 72 hrs by CellTiter-Glo luminescence assay. Particulars: ACC-MESO-1, 72 h.

What is called IC50 is the concentration needed to halve the response being measured.

Consider `CSCCC(NC(=S)C(NC(=O)C(C)=O)C(C)C)C(=S)NC(C)C(=O)NC(C)C(=S)NC(C)C(=S)NC(C)C(=O)NC1C(=O)NC(C(C)C)C(=O)NC(C)C(=O)NC(Cc2ccccc2)C(=O)NC(C(O)c2cn(C)c[n+]2C)C(=O)N/C=C\SC1C` (stereo not drawn), for which the IC50 came to 0.4 µM in the experiment with Jurkat, 2.1 µM in the experiment with SK-OV-3 and 0.7 µM in experiment [1].
